# Calls of active or inactive are those of the source. The rule behind the calls is not given here.
# Tests used:
# [1] = tested on: Mycobacterium tuberculosis variant bovis; test: Downregulation of hadA gene expression in Mycobacterium bovis BCG at 1 times MIC incubated for 8 hrs by RNA-sequencing analysis; assay type: functional
# [2] = tested on: Mycobacterium tuberculosis variant bovis; test: Downregulation of fabG1 gene expression in Mycobacterium bovis BCG at 1 times MIC incubated for 8 hrs by RNA-sequencing analysis; assay type: functional
# [3] = tested on: Mycobacterium tuberculosis variant bovis; test: Downregulation of inhA gene expression in Mycobacterium bovis BCG at 1 times MIC incubated for 8 hrs by RNA-sequencing analysis; assay type: functional
# [4] = tested on: Mycobacterium tuberculosis variant bovis; test: Downregulation of acpM gene expression in Mycobacterium bovis BCG at 1 times MIC incubated for 8 hrs by RNA-sequencing analysis; assay type: functional
# [5] = tested on: Mycobacterium tuberculosis variant bovis; test: Downregulation of mmaA2 gene expression in Mycobacterium bovis BCG at 1 times MIC incubated for 8 hrs by RNA-sequencing analysis; assay type: functional
# [6] = tested on: Mycobacterium tuberculosis variant bovis; test: Downregulation of mmaA3 gene expression in Mycobacterium bovis BCG at 1 times MIC incubated for 8 hrs by RNA-sequencing analysis; assay type: functional
# [7] = tested on: Mycobacterium tuberculosis variant bovis; test: Downregulation of fbpA gene expression in Mycobacterium bovis BCG at 1 times MIC incubated for 8 hrs by RNA-sequencing analysis; assay type: functional
# [8] = tested on: Mycobacterium tuberculosis variant bovis; test: Downregulation of fbpD gene expression in Mycobacterium bovis BCG at 1 times MIC incubated for 8 hrs by RNA-sequencing analysis; assay type: functional
# [9] = tested on: Mycobacterium tuberculosis variant bovis; test: Downregulation of desA2 gene expression in Mycobacterium bovis BCG at 1 times MIC incubated for 8 hrs by RNA-sequencing analysis; assay type: functional
# [10] = tested on: Mycobacterium tuberculosis variant bovis; test: Upregulation of cmtR gene expression in Mycobacterium bovis BCG at 1 times MIC incubated for 8 hrs by RNA-sequencing analysis; assay type: functional
# [11] = tested on: Mycobacterium tuberculosis variant bovis; test: Upregulation of zur gene expression in Mycobacterium bovis BCG at 1 times MIC incubated for 8 hrs by RNA-sequencing analysis; assay type: functional
# [12] = tested on: Mycobacterium tuberculosis variant bovis; test: Upregulation of ideR gene expression in Mycobacterium bovis BCG at 1 times MIC incubated for 8 hrs by RNA-sequencing analysis; assay type: functional
# [13] = tested on: Mycobacterium tuberculosis variant bovis; test: Upregulation of tcrYX gene expression in Mycobacterium bovis BCG at 1 times MIC incubated for 8 hrs by RNA-sequencing analysis; assay type: functional
# [14] = tested on: Mycobacterium tuberculosis variant bovis; test: Upregulation of mbtB gene expression in Mycobacterium bovis BCG at 1 times MIC incubated for 8 hrs by RNA-sequencing analysis; assay type: functional
# [15] = tested on: Mycobacterium tuberculosis variant bovis; test: Upregulation of mbtC gene expression in Mycobacterium bovis BCG at 1 times MIC incubated for 8 hrs by RNA-sequencing analysis; assay type: functional
# [16] = tested on: Mycobacterium tuberculosis variant bovis; test: Upregulation of mbtD gene expression in Mycobacterium bovis BCG at 1 times MIC incubated for 8 hrs by RNA-sequencing analysis; assay type: functional
# [17] = tested on: Mycobacterium tuberculosis variant bovis; test: Effect on nuoA-N gene expression in Mycobacterium bovis BCG at 1 times MIC incubated for 8 hrs by RNA-sequencing analysis; assay type: functional
# [18] = tested on: Mycobacterium tuberculosis variant bovis; test: Effect on qcrA-C gene expression in Mycobacterium bovis BCG at 1 times MIC incubated for 8 hrs by RNA-sequencing analysis; assay type: functional
# [19] = tested on: Mycobacterium tuberculosis variant bovis; test: Effect on ctaC-E gene expression in Mycobacterium bovis BCG at 1 times MIC incubated for 8 hrs by RNA-sequencing analysis; assay type: functional
# [20] = tested on: Mycobacterium tuberculosis variant bovis; test: Effect on cydA-D gene expression in Mycobacterium bovis BCG at 1 times MIC incubated for 8 hrs by RNA-sequencing analysis; assay type: functional
# [21] = tested on: Mycobacterium tuberculosis variant bovis; test: Effect on narG-J gene expression in Mycobacterium bovis BCG at 1 times MIC incubated for 8 hrs by RNA-sequencing analysis; assay type: functional
# [22] = tested on: Mycobacterium tuberculosis variant bovis; test: Upregulation of mmpL5 gene expression in Mycobacterium bovis BCG at 1 times MIC incubated for 8 hrs by RNA-sequencing analysis; assay type: functional
# [23] = tested on: Mycobacterium tuberculosis variant bovis; test: Upregulation of mmpS5 gene expression in Mycobacterium bovis BCG at 1 times MIC incubated for 8 hrs by RNA-sequencing analysis; assay type: functional
# [24] = tested on: Mycobacterium tuberculosis variant bovis BCG; test: Inhibition of cell wall biosynthesis in Mycobacterium bovis BCG assessed as reduction in trehalose monomycolate accumulation at 0.5 times MIC incubated for 12 hrs in presence of [14C]acetate by TLC based autoradiography analysis; assay type: functional, organism-based
# [25] = tested on: Mycobacterium tuberculosis variant bovis BCG; test: Inhibition of cell wall biosynthesis in Mycobacterium bovis BCG assessed as reduction in trehalose dimycolate accumulation at 0.5 times MIC incubated for 12 hrs in presence of [14C]acetate by TLC based autoradiography analysis; assay type: functional, organism-based
# [26] = tested on: Mycobacterium tuberculosis variant bovis BCG; test: Inhibition of cell wall biosynthesis in Mycobacterium bovis BCG assessed as formation of cytoplasmic membrane phospholipids at 0.5 times MIC incubated for 12 hrs in presence of [14C]acetate by TLC based autoradiography analysis; assay type: functional, organism-based
# [27] = tested on: Mycobacterium tuberculosis variant bovis BCG; test: Inhibition of mycolic acid biosynthesis in Mycobacterium bovis BCG assessed as decrease in alpha mycolic acid transfer onto cell wall arabinogalactan at 0.5 times MIC incubated for 12 hrs in presence of [14C]acetate by TLC based autoradiography analysis; assay type: functional, organism-based
# [28] = tested on: Mycobacterium tuberculosis variant bovis BCG; test: Inhibition of mycolic acid biosynthesis in Mycobacterium bovis BCG assessed as decrease in keto mycolic acid transfer onto cell wall arabinogalactan at 0.5 times MIC incubated for 12 hrs in presence of [14C]acetate by TLC based autoradiography analysis; assay type: functional, organism-based
# [29] = tested on: Mycobacterium tuberculosis variant bovis BCG; test: Inhibition of late-stage mycolic acid biosynthesis in Mycobacterium bovis BCG at 5 times MIC incubated for 6 hrs by TLC based autoradiography analysis; assay type: functional, organism-based
smiles,measurement,setting,value
CNC[C@@H]1C[C@H](c2ccc(OC(F)(F)F)cc2)N1Cc1ccccc1OC(F)(F)F (racemic),Activity,[1],Active
same,Activity,[2],Active
same,Activity,[3],Active
same,Activity,[4],Active
same,Activity,[5],Active
same,Activity,[6],Active
same,Activity,[7],Active
same,Activity,[8],Active
same,Activity,[9],Active
same,Activity,[10],Active
same,Activity,[11],Active
same,Activity,[12],Active
same,Activity,[13],Active
same,Activity,[14],Active
same,Activity,[15],Active
same,Activity,[16],Active
same,Activity,[17],Active
same,Activity,[18],Active
same,Activity,[19],Active
same,Activity,[20],Active
same,Activity,[21],Active
same,Activity,[22],Active
same,Activity,[23],Active
same,inhibition,[24],Active
same,inhibition,[25],Active
same,inhibition,[26],inactive
same,inhibition,[27],Active
same,inhibition,[28],Active
same,inhibition,[29],Active
Brc1cc(Br)cc([C@H]2C[C@@H](CN3CCCC3)N2Cc2ccccc2Br)c1 (racemic),inhibition,[29],Active

# — ChEMBL document CHEMBL5385915 (J Med Chem, 2024)
